Test results taken from patent US12351593B2, “Platinum IV complexes with substantially increased antitumor efficacy” (priority 2019, dated 2025).
pIC50: −log10 of the molar value.

What was measured:
[1] = test system: cancer cell line PC-3 (prostate carcinoma, ATCC CRL-1435); experiment: XTT test of antitumor efficacy in vitro, PC-3; format: cell-based; settings: 72 hours exposure
Text: (§1) XTT method was used in the in vitro experiments. We tested mother platinum (IV) complex TU31 (where X=Cl^−), three new platinum (IV) complexes according to the invention, where X=ClCH2COO^− (complex TU105), F3CCOO^− (complex TU106) and NO3^− (complex TU113), reference platinum (II) complex Oxaliplatin and reference platinum (IV) complex Satraplatin. Two cancer cell lines of heavy-to-treat tumors Capan-2 (pancreas adenocarcinoma) and PC-3 (prostate carcinoma) were used in XTT tests. The obtained results are summarized in the form of IC50 values in the following Table 1:
(§2) Antitumor efficacy of the new Pt(IV) complexes according to the invention was studied on heavy to treat cancer lines of pancreas and prostate. XTT method was used. Results were evaluated in IC50 values and compared with reference Pt(II) complex Oxaliplatin and reference Pt (IV) complex Satraplatin.
(§3) Fresh tumor cell lines were purchased from the Cell Bank to ensure their quality and activities. • a) Capan-2, pancreatic ductal adenocarcinoma, DSMZ, ACC-245 • b) PC-3, prostate carcinoma, ATCC® CRL1435™ Cultivation's Conditions of Tumor Cell Lines: Abbreviation of Used Compounds: • DMSO: dimethyl sulfoxide • PBS: phosphate buffered saline • XTT: 2,3-bis-(2-methoxy-4-nitro-5-sulphophenyl)-2H-tetrazolium-5-carboxanilide salt • PMS: N-methyl-dibenzopyrazinmethylsulfate • FBS: fetal bovine serum • NEAA: non-essential amino acids • L-glu: L-glutamine • DMEM: Dulbecco's Modified Eagle's Medium (SigmaAldrich) • PMS: phenazine methosulfate • Cultivation's conditions: 37° C., 5% CO2 • Growth medium: DMEM, 10% FBS, 2 mM L-glut., NEAA 100× XTT Working Procedure:
(§4) Tested compounds were dissolved in DMSO and diluted by PBS to tested concentration range just before addition to cell lines in wells. PBS was used as a positive control, DMSO in final concentration 20% was used as a negative control. All concentrations of compounds were assayed in triplicates. Each determination was carried out twice and was blinded for experimenter.
(§5) Testing was conducted on a 96-well plate. Dosage of tumor cells was about 2.5. 10^4 cells per well, dosage of growth medium was 100 μl per well. After 24 hours, the growth medium was suck off and 80 μl of fresh growth medium and 20 μl of solution with different concentration of the tested substance were added to wells. After 72 hours, the medium was suck off and 100 μl of a solution of Optimem reagent containing XTT and PMS were added to wells. After another 4 hours, the absorbance was measured at 450 nm (reference was at 630 nm). Results as IC50 were evaluated from the graph of normalized viability of cells plotted against the logarithm of the concentration of the substance.

[2] = test system: cancer cell line Capan-2 (pancreas adenocarcinoma, DSMZ, ACC-245); experiment: XTT test of antitumor efficacy in vitro, Capan-2; format: cell-based; settings: 72 hours exposure
Text: as §1, §2, §3, §4, §5

[3] = test system: Capan-2, pancreas adenocarcinoma (DSMZ, ACC-245); experiment: Antitumor efficacy in vivo, athymic mice model, subcutaneous Capan-2 tumor; set-up: species or system mice (Athymic Nude-FOXN-1^nu); settings: for Average tumor weight 28 d / TWI % (tumor weight inhibition) / Average tumor volume 1 d / Average tumor volume 4 d / Average tumor volume 8 d / Average tumor volume 11 d / Average tumor volume 15 d / Average tumor volume 18 d / Average tumor volume 22 d / Average tumor volume 25 d / Average tumor volume 29 d / TVI % (tumor volume inhibition): Capan-2, oral dose 20 mg/kg; for Average tumor weight 28 d / TWI % (tumor weight inhibition): 28 d; for Average tumor volume 1 d: day 1; for Average tumor volume 4 d: day 4; for Average tumor volume 8 d: day 8; for Average tumor volume 11 d: day 11; for Average tumor volume 15 d: day 15; for Average tumor volume 18 d: day 18; for Average tumor volume 22 d: day 22; for Average tumor volume 25 d: day 25; for Average tumor volume 29 d: day 29; for TVI % (tumor volume inhibition): end of experiment
Text: (§6) Two new platinum (IV) complexes TU105 and TU106 from XTT tests were further studied in vivo on athymic mice model with two pancreatic tumors. The platinum (IV) complex Satraplatin and mother complex TU31 were used as reference compounds again. Two heavy-to-treat tumors of pancreas Capan-2 and PaTu8902 were cultivated and then subcutaneously administered to mice at a dose of 1.10^7 cells/mouse. After an increase in the subcutaneous tumors to a volume of about 0.2 cm^3, two doses of respective complexes 2×20 mg/kg were administered orally every 1 week. Control group of mice received no drug. Volume of tumors were continuously measured throughout the experiment. Three weeks after the second dose, mice were sacrificed, tumors removed, weighed and obtained data were evaluated in the form of tumor volume inhibition in % (TVI %) and tumor weight inhibition in % (TWI %), where: TVI %=100−[(TVexp/TVcont)×100] • TVexp=average volume of cured tumors in cm^3 • TVcont=average volume of control tumors in cm^3 TWI %=100−[(TWexp/TWcont)×100] • TWexp=average weight of cured tumors in g • TWcont=average weight of control tumors in g
(§7) In vivo model: Athymic Nude-FOXN-1^nu, 6 mice per group (3 male+3 female)
(§8) • a) Capan-2, pancreatic adenocarcinoma, ductal (DSMZ, ACC-245) • b) […], pancreatic adenocarcinoma, ductal, high metastatic, grade II (DSMZ, ACC-179) Used Pt (IV) Complexes: • a) the reference Pt (IV) complex Satraplatin, detailed specification, see example 4. • b) the mother Pt (IV) complex TU31, detailed specification, see example 4. • c) the new Pt (IV) complex TU105, detailed specification, see example 4. • d) the new Pt (IV) complex TU106, detailed specification, see example 4. Used Doses for Oral Administration:
(§9) The homogenous bulk composition of the each tested Pt (IV) complex (20 mass. %) with Gelucire 50/13 (80 mass. %) was converted to water emulsion before oral administration to mice.
(§10) Cultivation conditions of cancer cell lines: 37° C., 5% CO2, DMEM (Dulbecco's Modified Eagle's Medium, Sigma Aldrich), 10% FBS, (fetal bovine serum), 2 mM L-glutamin, non-essential aminoacids
(§11) Transplantation of cancer cells: A dose 1×10^7 of cells was subcutaneously transplanted to each experimental mouse, then mice were subdivided into individual experimental groups.
(§12) After an increase in the subcutaneous tumors to a volume of about 0.2 cm^3, two doses of respective complexes 2×20 mg/kg were administered orally every 1 week. The control group of mice received no drug. Volume of tumors were continuously measured throughout the experiment. Three weeks after the second dose, mice were sacrificed, tumors removed, weighed and obtained data were evaluated in the form of tumor volume inhibition in % (TVI %) and tumor weight inhibition in % (TWI %), where: TVI %=100−[(TVexp/TVcont)×100] • TVexp=average volume of cured tumors in cm^3 • TVcont=average volume of control tumors in cm^3 TWI %=100−[(TWexp/TWcont)×100] • TWexp=average weight of cured tumors in g • TWcont=average weight of control tumors in g Obtained Results: […]

[4] = test system: PaTu8902, pancreas adenocarcinoma, metastatic, grade II (DSMZ, ACC-179); experiment: Antitumor efficacy in vivo, athymic mice model, subcutaneous PaTu8902 tumor; set-up: species or system mice (Athymic Nude-FOXN-1^nu); settings: PaTu8902, oral dose 20 mg/kg; for Average tumor weight 28 d / TWI % (tumor weight inhibition): 28 d; for Average volume of tumor 1 d: day 1; for Average volume of tumor 4 d: day 4; for Average volume of tumor 8 d: day 8; for Average volume of tumor 11 d: day 11; for Average volume of tumor 15 d: day 15; for Average volume of tumor 18 d: day 18; for Average volume of tumor 22 d: day 22; for Average volume of tumor 25 d: day 25; for Average volume of tumor 29 d: day 29; for TVI % (tumor volume inhibition): end of experiment
Text: as §6, §7, §8, §9, §10, §11, §12

Row | SMILES | pIC50 [1] | pIC50 [2] | Average tumor weight 28 d [3] [g] | TWI % (tumor weight inhibition) [3] [%] | Average tumor volume 1 d [3] [cm^3] | Average tumor volume 4 d [3] [cm^3] | Average tumor volume 8 d [3] [cm^3] | Average tumor volume 11 d [3] [cm^3] | Average tumor volume 15 d [3] [cm^3] | Average tumor volume 18 d [3] [cm^3] | Average tumor volume 22 d [3] [cm^3] | Average tumor volume 25 d [3] [cm^3] | Average tumor volume 29 d [3] [cm^3] | TVI % (tumor volume inhibition) [3] [%] | Average tumor weight 28 d [4] [g] | TWI % (tumor weight inhibition) [4] [%] | Average volume of tumor 1 d [4] [cm^3] | Average volume of tumor 4 d [4] [cm^3] | Average volume of tumor 8 d [4] [cm^3] | Average volume of tumor 11 d [4] [cm^3] | further results
1 | N[C@@H]1CCCC[C@H]1N.O=C([O-])C(=O)[O-].[Pt+2] [Oxaliplatin, (1R,2R-1,2-cyclohexanediamine-N,N′) (ethanedioato-O,O′) platinum (II), reference compound] | 4.25 | < 4.00 |  |  |  |  |  |  |  |  |  |  |  |  |  |  |  |  |  |  | 
2 | CC(=O)[O][Pt]([NH2])([Cl])([Cl])([NH]C1CCCCC1)[O]C(C)=O [Satraplatin, cis-(ammine, cyclohexylamine)-trans-bis-acetate-cis-dichloride Pt(IV), reference compound] | 4.99 | < 4.52 | 0.711 | 10.3 | 0.21 | 0.23 | 0.30 | 0.39 | 0.47 | 0.56 | 0.66 | 0.77 | 0.90 | 10.0 | 7.245 | 11.5 | 0.21 | 0.50 | 0.99 | 1.94 | Average volume of tumor 15 d [4]: 3.10 cm^3; Average volume of tumor 18 d [4]: 4.80 cm^3; Average volume of tumor 22 d [4]: 6.80 cm^3; Average volume of tumor 25 d [4]: 9.35 cm^3; Average volume of tumor 29 d [4]: 11.90 cm^3; TVI % (tumor volume inhibition) [4]: 12.8%
3 | [NH3+][Pt-2]([Cl])([NH2+]C12CC3CC(CC(C3)C1)C2)([O]C(=O)CCl)([O]C(=O)C12CC3CC(CC(C3)C1)C2)[O]C(=O)C12CC3CC(CC(C3)C1)C2 [TU105, cis-(ammine,1-adamantylamine)-trans-bis(1-adamantylcarboxylate)-cis-(chloride, monochloroacetate) Pt (IV)] | 7.22 | 7.40 | 0.213 | 73.1 | 0.20 | 0.21 | 0.22 | 0.23 | 0.27 | 0.30 | 0.34 | 0.37 | 0.40 | 60.0 | 2.522 | 69.2 | 0.21 | 0.21 | 0.40 | 0.62 | anti-tumor efficacy (TWI %), times greater than for reference Satraplatin ([3]; both pancreatic tumors Capan-2 and PaTu8902): about 7 times; Average volume of tumor 15 d [4]: 1.06 cm^3; Average volume of tumor 18 d [4]: 1.65 cm^3; Average volume of tumor 22 d [4]: 2.46 cm^3; Average volume of tumor 25 d [4]: 3.40 cm^3; Average volume of tumor 29 d [4]: 4.35 cm^3; TVI % (tumor volume inhibition) [4]: 68.1%
4 | [NH3+][Pt-2]([Cl])([NH2+]C12CC3CC(CC(C3)C1)C2)([O]C(=O)C12CC3CC(CC(C3)C1)C2)([O]C(=O)C12CC3CC(CC(C3)C1)C2)[O][N+](=O)[O-] [TU113, cis-(ammine,1-adamantylamine)-trans-bis(1-adamantylcarboxylate)-cis-(chloride, nitrate) Pt (IV)] | 6.64 | 6.96 |  |  |  |  |  |  |  |  |  |  |  |  |  |  |  |  |  |  | 
